Data published in PubChem BioAssay (NCI).
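Dose response: 5 concentrations. Exposure: 48 h. Format: 96-well plates. Endpoint: linear interpolation; highest concentration if not reached. Abbreviation: GI50, concentration required for 50% inhibition of growth. TGI: concentration producing complete growth inhibition.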

Tests used:
Assay in all cases: DTP human tumour cell line panel, 48 h
MDA-MB-435 = tested on: MDA-MB-435
KM12 colon = tested on: KM12 colon
HCC-2998 colon = tested on: HCC-2998 colon
SN12C renal = tested on: SN12C renal
K-562 leukemia = tested on: K-562 leukemia
CCRF-CEM leukemia = tested on: CCRF-CEM leukemia
COLO 205 colon = tested on: COLO 205 colon
A498 renal = tested on: A498 renal
TK-10 renal = tested on: TK-10 renal
SK-MEL-5 melanoma = tested on: SK-MEL-5 melanoma
SNB-19 CNS = tested on: SNB-19 CNS
MOLT-4 leukemia = tested on: MOLT-4 leukemia
SK-OV-3 ovarian = tested on: SK-OV-3 ovarian
SK-MEL-2 melanoma = tested on: SK-MEL-2 melanoma
HS 578T breast = tested on: HS 578T breast
LOX IMVI melanoma = tested on: LOX IMVI melanoma
NCI-H226 lung = tested on: NCI-H226 lung
SR leukemia = tested on: SR leukemia
CAKI-1 renal = tested on: CAKI-1 renal
MALME-3M melanoma = tested on: MALME-3M melanoma
NCI/ADR-RES ovarian = tested on: NCI/ADR-RES ovarian
SF-539 CNS = tested on: SF-539 CNS
HOP-92 NSCLC = tested on: HOP-92 NSCLC
RXF 393 renal = tested on: RXF 393 renal
HCT-15 colon = tested on: HCT-15 colon
M14 melanoma = tested on: M14 melanoma
HCT-116 colon = tested on: HCT-116 colon
OVCAR-8 ovarian = tested on: OVCAR-8 ovarian
786-0 renal = tested on: 786-0 renal
BT-549 breast = tested on: BT-549 breast
MDA-MB-231 breast = tested on: MDA-MB-231 breast
OVCAR-4 ovarian = tested on: OVCAR-4 ovarian
NCI-H522 lung = tested on: NCI-H522 lung
UACC-62 melanoma = tested on: UACC-62 melanoma
T-47D breast = tested on: T-47D breast
HT29 colon = tested on: HT29 colon
IGROV1 ovarian = tested on: IGROV1 ovarian
MCF7 breast = tested on: MCF7 breast
SF-295 CNS = tested on: SF-295 CNS
NCI-H460 lung = tested on: NCI-H460 lung
NCI-H23 lung = tested on: NCI-H23 lung
HL-60(TB) leukemia = tested on: HL-60(TB) leukemia
OVCAR-3 ovarian = tested on: OVCAR-3 ovarian
ACHN renal = tested on: ACHN renal
PC-3 prostate = tested on: PC-3 prostate
HOP-62 NSCLC = tested on: HOP-62 NSCLC
SNB-75 CNS = tested on: SNB-75 CNS
OVCAR-5 ovarian = tested on: OVCAR-5 ovarian
A549 NSCLC = tested on: A549 NSCLC
RPMI-8226 leukemia = tested on: RPMI-8226 leukemia
SF-268 CNS = tested on: SF-268 CNS
DU-145 prostate = tested on: DU-145 prostate
EKVX NSCLC = tested on: EKVX NSCLC
UACC-257 melanoma = tested on: UACC-257 melanoma
UO-31 renal = tested on: UO-31 renal
U251 CNS = tested on: U251 CNS
SW-620 colon = tested on: SW-620 colon
SK-MEL-28 melanoma = tested on: SK-MEL-28 melanoma

Structure (SMILES): Cn1ccnc1C(=O)/C=C/c1ccc(C(=O)Nc2ccccc2F)cc1
- GI50 (MDA-MB-435): 2.09 µM
- TGI (MDA-MB-435): 5.04 µM
- GI50 (KM12 colon): 1.89 µM
- TGI (KM12 colon): 3.82 µM
- GI50 (HCC-2998 colon): 2.34 µM
- TGI (HCC-2998 colon): 4.67 µM
- GI50 (SN12C renal): 2.63 µM
- TGI (SN12C renal): 9.56 µM
- GI50 (K-562 leukemia): 0.372 µM
- TGI (K-562 leukemia): > 100 µM
- GI50 (CCRF-CEM leukemia): 1.18 µM
- TGI (CCRF-CEM leukemia): 7.54 µM
- GI50 (COLO 205 colon): 2.74 µM
- TGI (COLO 205 colon): 6.67 µM
- GI50 (A498 renal): 2.41 µM
- TGI (A498 renal): 8.21 µM
- GI50 (TK-10 renal): 3.84 µM
- TGI (TK-10 renal): 15.9 µM
- GI50 (SK-MEL-5 melanoma): 2.14 µM
- TGI (SK-MEL-5 melanoma): 4.56 µM
- GI50 (SNB-19 CNS): 2.06 µM
- TGI (SNB-19 CNS): 5.66 µM
- GI50 (MOLT-4 leukemia): 2.38 µM
- TGI (MOLT-4 leukemia): 6.41 µM
- GI50 (SK-OV-3 ovarian): 6.53 µM
- TGI (SK-OV-3 ovarian): 20.6 µM
- GI50 (SK-MEL-2 melanoma): 6.25 µM
- TGI (SK-MEL-2 melanoma): 28.1 µM
- GI50 (HS 578T breast): 3.02 µM
- TGI (HS 578T breast): 15.4 µM
- GI50 (LOX IMVI melanoma): 0.636 µM
- TGI (LOX IMVI melanoma): 2.24 µM
- GI50 (NCI-H226 lung): 2.63 µM
- TGI (NCI-H226 lung): 10.3 µM
- GI50 (SR leukemia): 0.304 µM
- TGI (SR leukemia): 2.34 µM
- GI50 (CAKI-1 renal): 1.04 µM
- TGI (CAKI-1 renal): 4.33 µM
- GI50 (MALME-3M melanoma): 1.93 µM
- TGI (MALME-3M melanoma): 4.58 µM
- GI50 (NCI/ADR-RES ovarian): 3.29 µM
- TGI (NCI/ADR-RES ovarian): 22.5 µM
- GI50 (SF-539 CNS): 1.75 µM
- TGI (SF-539 CNS): 4.24 µM
- GI50 (HOP-92 NSCLC): 1.9 µM
- TGI (HOP-92 NSCLC): 7.07 µM
- GI50 (RXF 393 renal): 1.75 µM
- TGI (RXF 393 renal): 3.63 µM
- GI50 (HCT-15 colon): 1.33 µM
- TGI (HCT-15 colon): 4.06 µM
- GI50 (M14 melanoma): 1.7 µM
- TGI (M14 melanoma): 3.81 µM
- GI50 (HCT-116 colon): 0.862 µM
- TGI (HCT-116 colon): 2.35 µM
- GI50 (OVCAR-8 ovarian): 3.68 µM
- TGI (OVCAR-8 ovarian): 21.6 µM
- GI50 (786-0 renal): 1.69 µM
- TGI (786-0 renal): 3.32 µM
- GI50 (BT-549 breast): 1.77 µM
- TGI (BT-549 breast): 4.21 µM
- GI50 (MDA-MB-231 breast): 3.24 µM
- TGI (MDA-MB-231 breast): 10.5 µM
- GI50 (OVCAR-4 ovarian): 2.76 µM
- TGI (OVCAR-4 ovarian): 12.8 µM
- GI50 (NCI-H522 lung): 2.66 µM
- TGI (NCI-H522 lung): 8.76 µM
- GI50 (UACC-62 melanoma): 1.98 µM
- TGI (UACC-62 melanoma): 4.47 µM
- GI50 (T-47D breast): 2.9 µM
- TGI (T-47D breast): 17.8 µM
- GI50 (HT29 colon): 2.49 µM
- TGI (HT29 colon): 6.68 µM
- GI50 (IGROV1 ovarian): 2.12 µM
- TGI (IGROV1 ovarian): 5.05 µM
- GI50 (MCF7 breast): 1.82 µM
- TGI (MCF7 breast): 6.63 µM
- GI50 (SF-295 CNS): 4.6 µM
- TGI (SF-295 CNS): 16.3 µM
- GI50 (NCI-H460 lung): 1.94 µM
- TGI (NCI-H460 lung): 5.43 µM
- GI50 (NCI-H23 lung): 2.85 µM
- TGI (NCI-H23 lung): 9.43 µM
- GI50 (HL-60(TB) leukemia): 1.6 µM
- TGI (HL-60(TB) leukemia): 4.33 µM
- GI50 (OVCAR-3 ovarian): 2 µM
- TGI (OVCAR-3 ovarian): 4.57 µM
- GI50 (ACHN renal): 2.01 µM
- TGI (ACHN renal): 4.15 µM
- GI50 (PC-3 prostate): 1.89 µM
- TGI (PC-3 prostate): 4.47 µM
- GI50 (HOP-62 NSCLC): 4.27 µM
- TGI (HOP-62 NSCLC): 17.1 µM
- GI50 (SNB-75 CNS): 1.36 µM
- TGI (SNB-75 CNS): 8.03 µM
- GI50 (OVCAR-5 ovarian): 2.42 µM
- TGI (OVCAR-5 ovarian): 6.42 µM
- GI50 (A549 NSCLC): 3.01 µM
- TGI (A549 NSCLC): 13.2 µM
- GI50 (RPMI-8226 leukemia): 0.567 µM
- TGI (RPMI-8226 leukemia): 2.82 µM
- GI50 (SF-268 CNS): 2.46 µM
- TGI (SF-268 CNS): 9.16 µM
- GI50 (DU-145 prostate): 1.64 µM
- TGI (DU-145 prostate): 3.32 µM
- GI50 (EKVX NSCLC): 2.9 µM
- TGI (EKVX NSCLC): 11.5 µM
- GI50 (UACC-257 melanoma): 3.51 µM
- TGI (UACC-257 melanoma): 14 µM
- GI50 (UO-31 renal): 1.38 µM
- TGI (UO-31 renal): 2.67 µM
- GI50 (U251 CNS): 1.3 µM
- TGI (U251 CNS): 3.29 µM
- GI50 (SW-620 colon): 1.76 µM
- TGI (SW-620 colon): 6.29 µM
- GI50 (SK-MEL-28 melanoma): 2.04 µM
- TGI (SK-MEL-28 melanoma): 4.59 µM

Structure (SMILES): c1ccc2c(c1)Sc1ccccc1N2CC1CN2CCC1CC2 (centres undefined)
- TGI (MDA-MB-435): 8.7 µM
- TGI (KM12 colon): 17.5 µM
- TGI (HCC-2998 colon): 2.6 µM
- TGI (SN12C renal): 23.7 µM
- TGI (K-562 leukemia): 4.72 µM
- TGI (CCRF-CEM leukemia): 14.3 µM
- TGI (COLO 205 colon): 3.12 µM
- TGI (A498 renal): 24.7 µM
- TGI (TK-10 renal): 19.3 µM
- TGI (SK-MEL-5 melanoma): 7.63 µM
- TGI (SNB-19 CNS): 22.6 µM
- TGI (MOLT-4 leukemia): 16.5 µM
- TGI (SK-OV-3 ovarian): 26 µM
- TGI (SK-MEL-2 melanoma): 9.52 µM
- TGI (HS 578T breast): 26 µM
- TGI (LOX IMVI melanoma): 11.5 µM
- TGI (NCI-H226 lung): 30.2 µM
- TGI (SR leukemia): 7.83 µM
- TGI (CAKI-1 renal): 21 µM
- TGI (MALME-3M melanoma): 3.91 µM
- TGI (NCI/ADR-RES ovarian): 24.5 µM
- TGI (SF-539 CNS): 21.8 µM
- TGI (HOP-92 NSCLC): 25.2 µM
- TGI (RXF 393 renal): 10.2 µM
- TGI (HCT-15 colon): 19.6 µM
- TGI (M14 melanoma): 3.36 µM
- TGI (HCT-116 colon): 12.8 µM
- TGI (OVCAR-8 ovarian): 27.2 µM
- TGI (786-0 renal): 19.1 µM
- TGI (BT-549 breast): 27.8 µM
- TGI (MDA-MB-231 breast): 15 µM
- TGI (OVCAR-4 ovarian): 20.8 µM
- TGI (NCI-H522 lung): 16.5 µM
- TGI (UACC-62 melanoma): 10.5 µM
- TGI (T-47D breast): 8.65 µM
- TGI (HT29 colon): 11.2 µM
- TGI (IGROV1 ovarian): 23.2 µM
- TGI (MCF7 breast): 11.2 µM
- TGI (SF-295 CNS): 29.1 µM
- TGI (NCI-H460 lung): 11.3 µM
- TGI (NCI-H23 lung): 26.1 µM
- TGI (HL-60(TB) leukemia): 20.3 µM
- TGI (OVCAR-3 ovarian): 11.9 µM
- TGI (ACHN renal): 22.2 µM
- TGI (PC-3 prostate): 17.2 µM
- TGI (HOP-62 NSCLC): 27 µM
- TGI (SNB-75 CNS): 9.56 µM
- TGI (OVCAR-5 ovarian): 24.5 µM
- TGI (A549 NSCLC): 22.8 µM
- TGI (RPMI-8226 leukemia): 9.99 µM
- TGI (SF-268 CNS): 20.9 µM
- TGI (DU-145 prostate): 19.4 µM
- TGI (EKVX NSCLC): 24.3 µM
- TGI (UACC-257 melanoma): 3.48 µM
- TGI (UO-31 renal): 19.4 µM
- TGI (U251 CNS): 14.5 µM
- TGI (SW-620 colon): 13.5 µM
- TGI (SK-MEL-28 melanoma): 4.32 µM
